# Source: patent US8263606B2 (Xenon Pharmaceuticals Inc., priority 2008, dated 2012)
# What was measured:
# sodium channel = assay: Guanidine influx assay (14C-guanidine radiotracer flux, in vitro); type: cell-based, human or rat; details: guanidine influx assay using a known cell line that expresses a sodium channel
# In short: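 Sodium channel block is measured as reduced 14C-guanidine uptake in cells stably expressing human or rat channels, stimulated with aconitine. Potency is given as IC50 from a four-parameter curve.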
# CYP3A4 = CYP3A4 (Homo sapiens, UniProt P08684); assay: Cytochrome P450 (CYP450) Inhibition Assay, CYP3A4 (Vivid fluorescence, BOMCC substrate); details: human, P450 Baculosomes (recombinant CYP3A4), probe BOMCC (Vivid substrate)
# Sequence of CYP3A4 (P08684 whole entry): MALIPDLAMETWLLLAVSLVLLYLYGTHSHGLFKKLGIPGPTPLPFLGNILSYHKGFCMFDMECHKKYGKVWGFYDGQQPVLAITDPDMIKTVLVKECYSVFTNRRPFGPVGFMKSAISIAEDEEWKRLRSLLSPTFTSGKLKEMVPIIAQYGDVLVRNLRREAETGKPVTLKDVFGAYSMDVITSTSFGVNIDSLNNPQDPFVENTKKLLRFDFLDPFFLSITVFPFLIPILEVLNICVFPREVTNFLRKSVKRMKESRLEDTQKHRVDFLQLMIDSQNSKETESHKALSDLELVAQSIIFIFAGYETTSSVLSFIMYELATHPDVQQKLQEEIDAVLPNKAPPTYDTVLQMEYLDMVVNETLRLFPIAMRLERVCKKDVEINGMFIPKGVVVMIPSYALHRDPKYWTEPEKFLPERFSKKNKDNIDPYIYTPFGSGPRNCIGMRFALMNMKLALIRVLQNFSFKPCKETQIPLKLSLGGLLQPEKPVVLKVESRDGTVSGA
IC50 (sodium channel; activity level class) [µM],inhibition at 10 µM (CYP3A4) [%],melting point,IC50 (sodium channel) [µM],SMILES
1 to 10,< 50,> 250 °C,,"Cc1nc2cc3c(cc2s1)C1(CO3)C(=O)Nc2ccccc21 (stereo not shown) [Example 1, 2-methylspiro[furo[2,3-f][1,3]benzothiazole-7,3′-indol]-2′(1′H)-one]"
0.001 to 0.1,> 50,183 to 185 °C,,"Cc1cccc(CN2C(=O)C3(COc4cc5c(cc43)OCCO5)c3ccccc32)n1 (stereo not shown) [Example 1.1, 1′-[(6-methylpyridin-2-yl)methyl]-2,3-dihydrospiro[furo[2,3-g][1,4]benzodioxine-8,3′-indol]-2′(1′H)-one]"
0.001 to 0.1,> 50,169 to 171 °C,,"Cc1cc(CN2C(=O)C3(COc4cc5c(cc43)OCO5)c3ccccc32)c(C)n1C(C)C (stereo not shown) [Example 1.3, 1′-{[2,5-dimethyl-1-(1-methylethyl)-1H-pyrrol-3-yl]methyl}spiro[furo[2,3-f][1,3]benzodioxole-7,3′-indol]-2′(1′H)-one]"
1 to 10,> 50,132 to 135 °C,,"O=C1N(Cc2ccc(Cl)s2)c2ccccc2C12COc1ccc(OCc3ccccc3)cc12 (stereo not shown) [Example 1.4, 5-(benzyloxy)-1′-[(5-chloro-2-thienyl)methyl]spiro[1-benzofuran-3,3′-indol]-2′(1′H)-one]"
0.1 to 1,,196 to 198 °C,,"O=C1N(C(c2ccccc2)c2ccccc2)c2cccc(F)c2C12COc1cc3c(cc12)OCCO3 (stereo not shown) [Example 2.44, 1′-(diphenylmethyl)-4′-fluoro-2,3-dihydrospiro[furo[2,3-g][1,4]benzodioxine-8,3′-indol]-2′(1′H)-one]"
1 to 10,,132 to 134 °C,,"O=C1N(Cc2ccccn2)c2ccccc2C12COc1ccc3c(c12)OCCO3 (stereo not shown) [Example 4.127, 1-(pyridin-2-ylmethyl)-2,3-dihydrospiro[furo[3,2-f][1,4]benzodioxine-9,3′-indol]-2′(1′H)-one]"
,,192 to 195 °C,1 to 10,"O=C(O)c1ccc(CN2C(=O)C3(COc4cc5c(cc43)OCCO5)c3ccccc32)o1 (stereo not shown) [Example 11.32, 5-[(2′-oxo-2,3-dihydrospiro[furo[2,3-g][1,4]benzodioxine-8,3′-indol]-1′(2′H)-yl)methyl]furan-2-carboxylic acid]"
,> 50,157 to 159 °C,,"CN1C(=O)C2(COc3cc4c(cc32)OCCO4)c2c(OCc3ncccc3C(F)(F)F)cccc21 (stereo not shown) [Example 16.58, 1′-methyl-4′-{[3-(trifluoromethyl)pyridin-2-yl]methoxy}-2,3-dihydrospiro[furo[2,3-g][1,4]benzodioxine-8,3′-indol]-2′(1′H)-one]"
,> 50,226 to 228 °C,,"CN1C(=O)[C@@]2(COc3cc4c(cc32)OCO4)c2c(Br)cccc21 [Example 16.63, (7R)-4′-bromo-1′-methylspiro[furo[2,3-f][1,3]benzodioxole-7,3′-indol]-2′(1′H)-one]"
,> 50,226 to 227 °C,,"CN1C(=O)[C@]2(COc3cc4c(cc32)OCO4)c2c(Br)cccc21 [Example 16.64, (7S)-4′-bromo-1′-methylspiro[furo[2,3-f][1,3]benzodioxole-7,3′-indol]-2′(1′H)-one]"
,> 50,230 to 231 °C,,"O=C1Nc2cccc(-c3ccoc3)c2[C@]12COc1cc3c(cc12)OCO3 [Example 16.65, (7S)-4′-furan-3-ylspiro[furo[2,3-f][1,3]benzodioxole-7,3′-indol]-2′(1′H)-one]"
,> 50,229 to 231 °C,,"O=C1Nc2cccc(-c3ccoc3)c2[C@@]12COc1cc3c(cc12)OCO3 [Example 16.66, (7R)-4′-furan-3-ylspiro[furo[2,3-f][1,3]benzodioxole-7,3′-indol]-2′(1′H)-one]"
,> 50,201 to 202 °C,,"CN1C(=O)C2(COc3cc4c(cc32)OCCO4)c2c(-c3cc[nH]n3)cccc21 (stereo not shown) [Example 16.67, 1′-methyl-4′-(1H-pyrazol-3-yl)-2,3-dihydrospiro[furo[2,3-g][1,4]benzodioxine-8,3′-indol]-2′(1′H)-one]"
,> 50,178 to 180 °C,,"CN1C(=O)C2(COc3cc4c(cc32)OCCO4)c2c(-c3ccoc3)cccc21 (stereo not shown) [Example 16.68, 4′-furan-3-yl-1′-methyl-2,3-dihydrospiro[furo[2,3-g][1,4]benzodioxine-8,3′-indol]-2′(1′H)-one]"
,< 50,250 to 251 °C,,"CN1C(=O)C2(COc3cc4c(cc32)OCCO4)c2c(-c3cn[nH]c3)cccc21 (stereo not shown) [Example 16.69, 1′-methyl-4′-(1H-pyrazol-4-yl)-2,3-dihydrospiro[furo[2,3-g][1,4]benzodioxine-8,3′-indol]-2′(1′H)-one]"
,< 50,220 to 222 °C,,"CN1C(=O)C2(COc3cc4c(cc32)OCCO4)c2c(-c3cnn(C)c3)cccc21 (stereo not shown) [Example 16.70, 1′-methyl-4′-(1-methyl-1H-pyrazol-4-yl)-2,3-dihydrospiro[furo[2,3-g][1,4]benzodioxine-8,3′-indol]-2′(1′H)-one]"
,< 50,196 to 197 °C,,"CN1C(=O)C2(COc3cc4c(cc32)OCCO4)c2c(C#N)cccc21 (stereo not shown) [Example 16.71, 1′-methyl-2′-oxo-1′,2,2′,3-tetrahydrospiro[furo[2,3-g][1,4]benzodioxine-8,3′-indole]-4′-carbonitrile]"
,> 50,182 to 184 °C,,"CN1C(=O)C2(COc3cc4c(cc32)OCO4)c2c(C3CCOC3)cccc21 (stereo not shown) [Example 16.73, 1′-methyl-4′-(tetrahydrofuran-3-yl)spiro[furo[2,3-f][1,3]benzodioxole-7,3′-indol]-2′(1′H)-one]"
,< 50,199 to 201 °C,,"Cc1nc(-c2cccc3c2C2(COc4cc5c(cc42)OCCO5)C(=O)N3C)no1 (stereo not shown) [Example 16.74, 1′-methyl-4′-(5-methyl-1,2,4-oxadiazol-3-yl)-2,3-dihydrospiro[furo[2,3-g][1,4]benzodioxine-8,3′-indol]-2′(1′H)-one]"
,> 50,228 to 230 °C,,"Cc1noc(C)c1-c1cccc2c1C1(COc3cc4c(cc31)OCCO4)C(=O)N2C (stereo not shown) [Example 16.75, 4′-(3,5-dimethylisoxazol-4-yl)-1′-methyl-2,3-dihydrospiro[furo[2,3-g][1,4]benzodioxine-8,3′-indol]-2′(1′H)-one]"
,< 50,128 to 129 °C,,"CN1C(=O)C2(COc3cc4c(cc32)OCCO4)c2c(C(=O)NC3CCC3)cccc21 (stereo not shown) [Example 16.77, N-cyclobutyl-1′-methyl-2′-oxo-1′,2,2′,3-tetrahydrospiro[furo[2,3-g][1,4]benzodioxine-8,3′-indole]-4′-carboxamide]"
,> 50,166 to 168 °C,,"COc1cccc(Oc2cccc3c2C2(COc4cc5c(cc42)OCCO5)C(=O)N3C)c1 (stereo not shown) [Example 16.79, 4′-(3-methoxyphenoxy)-1′-methyl-2,3-dihydrospiro[furo[2,3-g][1,4]benzodioxine-8,3′-indol]-2′(1′H)-one]"
,> 50,55 to 58 °C,,"COc1ccc(Oc2cccc3c2C2(COc4cc5c(cc42)OCCO5)C(=O)N3C)cc1 (stereo not shown) [Example 16.84, 4′-(4-methoxyphenoxy)-1′-methyl-2,3-dihydrospiro[furo[2,3-g][1,4]benzodioxine-8,3′-indol]-2′(1′H)-one]"
,> 50,181 to 183 °C,,"CN1C(=O)C2(COc3cc4c(cc32)OCCO4)c2c(OCc3ccccn3)cccc21 (stereo not shown) [Example 16.85, 1′-methyl-4-(pyridine-2-ylmethoxy)-2,3-dihydrospiro[furo[2,3-g][1,4]benzodioxine-8,3′-indol]-2′(1′H)-one]"
,> 50,151 to 153 °C,,"CN1C(=O)C2(COc3cc4c(cc32)OCCO4)c2c(Oc3ccc(F)cc3)cccc21 (stereo not shown) [Example 16.87, 4′-(4-fluorophenoxy)-1′-methyl-2,3-dihydrospiro[furo[2,3-g][1,4]benzodioxine-8,3′-indol]-2′(1′H)-one]"
,> 50,219 to 220 °C,,"Cc1nc(-c2cccc3c2C2(COc4cc5c(cc42)OCCO5)C(=O)N3C)cs1 (stereo not shown) [Example 25, 1′-methyl-4′-(2-methyl-1,3-thiazol-4-yl)-2,3-dihydrospiro[furo[2,3-g][1,4]benzodioxine-8,3′-indol]-2′(1′H)-one]"
,> 50,233 to 234 °C (dec.),,"CN1C(=O)C2(COc3cc4c(cc32)OCCO4)c2c(-c3csc(N)n3)cccc21 (stereo not shown) [Example 26, 4′-(2-amino-1,3-thiazol-4-yl)-1′-methyl-2,3-dihydrospiro[furo[2,3-g][1,4]benzodioxine-8,3′-indol]-2′(1′H)-one]"
,< 50,> 250 °C,,"CN1C(=O)C2(COc3cc4c(cc32)OCCO4)c2c(-c3cc(O)[nH]n3)cccc21 (stereo not shown) [Example 27, 4′-(5-hydroxy-1H-pyrazol-3-yl)-1′-methyl-2,3-dihydrospiro[furo[2,3-g][1,4]benzodioxine-8,3′-indol]-2′(1′H)-one]"
,> 50,240 to 241 °C,,"Nc1cccc(CN2C(=O)C3(COc4cc5c(cc43)OCCO5)c3ccccc32)n1 (stereo not shown) [Example 34, 1′-[(6-aminopyridin-2-yl)methyl]-2,3-dihydrospiro[furo[2,3-g][1,4]benzodioxine-8,3′-indol]-2′(1′H)-one]"
,,179 to 181 °C,0.1 to 1,"O=C1N(C[C@H](O)CO)c2ccccc2C12COc1cc3c(cc12)OCCO3 (stereo partly drawn) [Example 40, 1′-[(2S)-2,3-dihydroxypropyl]-2,3-dihydrospiro[furo[2,3-g][1,4]benzodioxine-8,3′-indol]-2′(1′H)-one]"
